Among the test systems are HOP-62 NSCLC; HT29 colon; IGROV1 ovarian; LOX IMVI melanoma; MDA-N; OVCAR-4 ovarian; OVCAR-8 ovarian; SF-295 CNS; SK-MEL-2 melanoma; HL-60(TB) leukemia.
What all share (assay): inhibition of tumour cell growth, NCI panel, 48 h

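Cultured in 96-well plates, cells were exposed to test compound for 48 hours across five concentrations. GI50 = concentration required for 50% inhibition of growth. TGI marks complete inhibition of growth.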

`C[C@]12CC(c3ccccc3O1)C(C(=O)NC13CC4CC(CC(C4)C1)C3)C(=O)N2` (stereo partly drawn): the TGI in the test with HOP-62 NSCLC is over 100 µM; in the test on HT29 colon, 30.8 µM; in the test on IGROV1 ovarian, over 100 µM; with LOX IMVI melanoma, 57.9 µM; in the test with MDA-N, 43.8 µM; in the test on OVCAR-4 ovarian, over 100 µM. Also, the TGI with OVCAR-8 ovarian was 93.2 µM; with SF-295 CNS it was over 100 µM; in the test with SK-MEL-2 melanoma, 43 µM.

In the case of `CN(C)Cc1ccc(C(=O)Nc2ccc3ncnc(Nc4ccc(Oc5cccc(F)c5)c(Cl)c4)c3c2)cc1`, the GI50 was 1.91 µM in the test on HL-60(TB) leukemia; 1.12 µM with IGROV1 ovarian; 1690 nM with LOX IMVI melanoma; 1.53 µM with OVCAR-4 ovarian; 1.71 µM in the test on SF-295 CNS. Also, the TGI in the test on HL-60(TB) leukemia was 3.7 µM; in the test on IGROV1 ovarian, 2.6 µM; in the test with LOX IMVI melanoma, 3.15 µM; with OVCAR-4 ovarian, 3.09 µM; with SF-295 CNS it was 3.11 µM.

For `O=C1c2ccccc2-c2ccc(N=[N+]([O-])c3ccc4c(c3)C(=O)c3ccccc3-4)cc21`, the TGI in the test on HL-60(TB) leukemia, with HOP-62 NSCLC, in the test with HT29 colon, in the test on IGROV1 ovarian, in the test on LOX IMVI melanoma and with MDA-N was over 100 µM throughout. Besides, the TGI in the test on OVCAR-4 ovarian, with OVCAR-8 ovarian, in the test on SF-295 CNS and with SK-MEL-2 melanoma was over 100 µM in each case.

For `C=C1C(=O)OC2C1C(OC(=O)/C(C)=C/C)CC1(C)C(=O)CCC(=C)C21` (stereo not drawn), the TGI with HOP-62 NSCLC stood at 30.5 µM; in the test with HT29 colon, 22 µM; in the test on IGROV1 ovarian, 26.6 µM; with LOX IMVI melanoma it was 13.2 µM; with MDA-N, 18.1 µM; in the test on OVCAR-4 ovarian it was 30.3 µM. Also, the TGI in the test with OVCAR-8 ovarian turned out to be 29.6 µM; in the test with SF-295 CNS it was 35.8 µM; in the test on SK-MEL-2 melanoma, 24.2 µM.

Take `CC(C)CC1c2[nH]c3ccccc3c2C[C@H]2C(=O)NC(CCC(=O)OC(C)(C)C)C(=O)N12` (stereo partly drawn): the TGI in the test with HL-60(TB) leukemia is 55.2 µM; in the test with HOP-62 NSCLC, 56.2 µM; with HT29 colon, 43.1 µM; with IGROV1 ovarian, over 100 µM; in the test on LOX IMVI melanoma it was 60.6 µM; in the test on MDA-N it was over 100 µM. The TGI in the test with OVCAR-4 ovarian is over 100 µM; in the test with OVCAR-8 ovarian, over 100 µM; in the test with SF-295 CNS, 41.1 µM; in the test on SK-MEL-2 melanoma it was 43.8 µM.

With `c1ccc2sc(C3(N4CCCCC4)CCCC3)cc2c1`, the TGI in the test with HL-60(TB) leukemia was 19.1 µM; in the test on HOP-62 NSCLC, 28.8 µM; in the test on HT29 colon it was 13.5 µM; in the test with IGROV1 ovarian, 23.6 µM; in the test with LOX IMVI melanoma it was 32.7 µM; in the test with MDA-N, 35.1 µM. Moreover, the TGI amounted to 23.7 µM with OVCAR-4 ovarian, 24.7 µM with OVCAR-8 ovarian and 23.7 µM in the test on SF-295 CNS.

As to `O=C(O)C1CC(c2ccccc2)=NN1c1ccccc1` (stereo not drawn), the TGI in the test with HL-60(TB) leukemia, with HOP-62 NSCLC, with HT29 colon, in the test on IGROV1 ovarian, in the test on LOX IMVI melanoma and in the test with MDA-N was over 100 µM each time. Besides, the TGI in the test on OVCAR-4 ovarian, with OVCAR-8 ovarian, with SF-295 CNS and in the test with SK-MEL-2 melanoma was over 100 µM throughout.

With `S=C1N(c2ccc(Cl)cc2)C2=C(N=Nc3ccccc3)C(=Nc3ccccc3S2)N1c1ccccn1`, the TGI in the test with HL-60(TB) leukemia was 28.1 µM; in the test with HOP-62 NSCLC it was 33.7 µM; in the test with HT29 colon, 35.6 µM; in the test with IGROV1 ovarian it was 1.47 µM; with LOX IMVI melanoma it was 24.4 µM; with MDA-N it was 30.1 µM. The results for the TGI in the test on OVCAR-8 ovarian and in the test with SF-295 CNS were 28.2 µM and 32.3 µM, respectively.

Consider `Oc1cc2cccc[n+]2c2cccc(Cl)c12`, for which the GI50 in the test with HL-60(TB) leukemia was 35.8 µM; with HT29 colon, 40.7 µM; in the test on IGROV1 ovarian, 31.4 µM; in the test on MDA-N, 16.9 µM; in the test on OVCAR-4 ovarian it was 16.2 µM; with SF-295 CNS, 95.3 µM. In addition, the TGI with MDA-N was determined as 33.5 µM; in the test with OVCAR-4 ovarian, 39.5 µM.

Consider `O=S(=O)(c1ccc(I)cc1)N(c1ccccc1)S(=O)(=O)C(F)(F)C(F)(F)C(F)(F)C(F)(F)F`, for which the TGI in the test with HL-60(TB) leukemia was over 100 µM; in the test on HOP-62 NSCLC, 66.6 µM; in the test on HT29 colon it was 51.2 µM; in the test with IGROV1 ovarian it was over 100 µM; in the test with LOX IMVI melanoma, over 100 µM; in the test on MDA-N, over 100 µM. Moreover, the TGI in the test on OVCAR-4 ovarian is 68.1 µM; in the test on OVCAR-8 ovarian it was over 100 µM; in the test with SF-295 CNS, 71.8 µM; in the test on SK-MEL-2 melanoma, 90.6 µM.

In the case of `COc1cc(-c2coc3c(OC)c(OC4OC(CO)C(O)C(O)C4O)c(OC)cc3c2=O)cc(OC)c1C` (stereo not drawn), the TGI is over 100 µM with HL-60(TB) leukemia; 44.1 µM with HOP-62 NSCLC; 35.1 µM in the test with HT29 colon; 30.9 µM with IGROV1 ovarian; over 31.2 µM in the test with LOX IMVI melanoma; 46.7 µM in the test with MDA-N. Further, the TGI in the test on OVCAR-4 ovarian was determined as 63.2 µM; in the test with OVCAR-8 ovarian, 25.3 µM; with SF-295 CNS, 28.5 µM; in the test on SK-MEL-2 melanoma, 41.1 µM.

The record behind these values is PubChem BioAssay (NCI).
